Measurements published in US6479476B1, “19-nor steroids substituted in position 11β, preparation method and intermediates, application as medicines and pharmaceutical compositions containing them” (Aventis Pharma S.A., priority 1997, dated 2002).
Where two headings read alike, the source gives them in different places.

Legend:
[1] = test system: human mammary cells MCF-7; experiment: Effect on the proliferation of mammary cells (MCF-7, DNA quantitation after 7 days); type: cell-based; parameters: key: The molecules inducing a cellular growth identical to that observed with the solvent alone are classed “inactivated”; Inhibitor: those inducing cellular growth lower than that observed with the solvent are classed “inhibitor”; *Mixed: slight agonist activity in very weak concentrations and inhibitory activity in stronger concentrations; details: MCF-7 cells in steroid-free medium, 7 days of culture, DNA analysis; compared with oestradiol at 10^-10M = 100% agonist activity
Text: 1—Effect on the Proliferation of Mammary Cells The proliferative activity of the molecules is studied comparatively with that of oestradiol on the human mammary cells MCF-7 in culture. To highlight the agonist effect of oestradiol and/or the molecules tested, the culture medium for the maintenance of the cells (rich in growth factors and in steroids) is replaced by a more impoverished medium, amongst others lacking in steroids (DMEM supplemented by 5% of serum with steroid removed and without phenol red). The cells undergo this deprivation two days before the start of the trial. After 7 days of culture in the presence of the products to be studied, the cellular proliferation is evaluated by quantitive analysis of the DNA. In each trial, the effect of the oestradiol at 10^−10M (cellular growth in the presence of oestradiol less cellular growth in the presence of solvent) determines the agonist activity at 100%. The activity of the molecules is evaluated in comparison to this internal control. The molecules inducing a cellular growth identical to that observed with the solvent alone are classed “inactivated”, those inducing cellular growth lower than that observed with the solvent are classed “inhibitor”.

[2] = target: T1, recombinant human oestrogen receptor (Homo sapiens, UniProt P03372); experiment: Affinity for the human oestrogen receptor (REH), displacement of tritiated oestradiol, relative affinity ARL; type: binding
T1 construct: comprising the coding region for the human oestrogen receptor of wild type; made in house; host or cells: SF9 insect cells (ATCC CRL1711), baculovirus
T1 sequence (P03372 1-595): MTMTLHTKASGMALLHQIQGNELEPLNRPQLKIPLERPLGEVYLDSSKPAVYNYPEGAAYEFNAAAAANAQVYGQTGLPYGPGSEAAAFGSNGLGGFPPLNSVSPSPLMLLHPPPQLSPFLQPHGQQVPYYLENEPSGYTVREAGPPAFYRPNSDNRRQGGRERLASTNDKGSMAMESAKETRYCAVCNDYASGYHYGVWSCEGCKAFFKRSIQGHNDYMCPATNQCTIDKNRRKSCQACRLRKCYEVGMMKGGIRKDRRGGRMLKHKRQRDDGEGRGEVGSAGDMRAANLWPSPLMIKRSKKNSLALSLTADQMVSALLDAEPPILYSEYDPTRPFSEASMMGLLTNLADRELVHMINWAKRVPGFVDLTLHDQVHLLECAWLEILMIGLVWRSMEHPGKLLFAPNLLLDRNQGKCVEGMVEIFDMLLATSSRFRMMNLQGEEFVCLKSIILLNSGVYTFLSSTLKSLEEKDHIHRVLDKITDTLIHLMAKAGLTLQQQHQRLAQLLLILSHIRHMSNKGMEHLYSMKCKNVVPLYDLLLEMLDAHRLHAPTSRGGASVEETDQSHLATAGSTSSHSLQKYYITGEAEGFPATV
Text: 2—Affinity of the Human Oestrogen Receptor (REH)
A cytosolic extract of SF9 cells containing the recombinant human oestrogen receptor is obtained by over-expression in an insect-Baculo-viros system of cells, according to the general methodology described by N. R. WEBB et al. (Journal of Methods in cell and Molecular Biology, (1990) vol 2 n°4, 173-188) and whose application is described for the expression of human hormonal receptors, for example the human glucocorticoid receptor (G.SRINIVASAN et al. Molecular Endocrinology (1990) vol 4 n°2 209-216).
The BaculoGold Transfection Kit (PharMingen, reference 21000K) is used to generate the recombinant baculovirus containing the fragment of DNAc described in the expression vector HEGO by L. TORA et al. (The EMBO Journal (1989) vol 8 n°7 1981-1986) comprising the coding region for the human oestrogen receptor of wild type with glycine in position 400.
The recombinant virus obtained in this way is used to express the […] receptor in the cells of insects SF9 (ATCC CRL1711), according to the known methodology previously cited.
2×10^7 SF9 cells are cultivated in a 175 cm^2 “Falcon” flask in TNM-FH “SIGMA” medium supplemented with 10% of foetal calf serum (FCS) and 50 micrograms/ml of gentamycine. After infection then incubation at 27° C. for 40 to 42 hours, the cells are lysed in 1 ml of lyse buffer (Tris 20 mM-HCl pH8, EDTA 0.5 mM, DTT 2mM, Glycerol 20%, KCl 400 mM) by a freezing-defrosting cycle that is repeated twice more. The supernatant, containing the recombinant human oestrogen receptor is preserved in liquid nitrogen in 0.5 ml amounts.
The supernatant is incubated at 0° C. for 24 hours with a consistent concentration (T) of oestradiol tritiated in the presence of growing concentrations either of cold oestradiol (0-1000×10^−9M), or of cold product to be tested (0-25000×10^−9M). The concentration of linked triated oestradiol (B) is then measured in each incubation by the dextran carbon adsorption technique.
3—Calculation of the Affinity Relative to Linking (ARL)
The 2 following curves are plotted: the percentage of 100×B/BO linked tritiated hormone in comparison to the logarithm of the concentration of cold reference hormone or in comparison to the logarithm of the concentration of cold product tested.
The soundness of the following equation is determined:
B0=Concentration of the linked tritiated hormone in the absence of any cold product,
B=Concentration of the linked tritiated hormone in the presence of an X concentration of cold product,
Bmin=Concentration of linked tritiated hormone for an incubation of this tritiated hormone in concentration (T) in the presence of a large excess of cold reference hormone (1000×10^−9) for human receptor.
The intersections of the right angle I50 and the curves, make it possible to evaluate the concentration of cold reference hormone (CH) and the tested cold product (CX) which inhibit 50% of the bond of the tritiated hormone on the receptor.
The relative affinity of the link (ARL) of the tested product is determined by the equation: […]

[3] = incubation at 0° C. for 24 hours with tritiated oestradiol, ARL=100(CH)/(CX), oestradiol = 100

| SMILES | Relative affinity of the link (ARL), EH oestradiol = 100, 24 H [2, 3] | ACTIVITY (proliferative activity on MCF-7 cells) [1] | Relative affinity of the link (ARL), EH oestradiol = 100, 24 H [2] |
| --- | --- | --- | --- |
| C[C@]12C[C@H](c3ccc(CCCN4CCCC4)cc3)[C@@H]3c4ccc(O)cc4CC[C@H]3[C@@H]1CC[C@@H]2O [Example 7, 11β-[4-[3-(1-pyrrolidinyl)propyl]phenyl]-estra-1,3,5(10)-trien-3,17β-diol] | – | Inhibitor | 59 |
| C[C@]12C[C@H](c3ccc(CCCN4CCCCC4)cc3)[C@@H]3c4ccc(O)c(Cl)c4CC[C@H]3[C@@H]1CC[C@@H]2O [Example 11, 4-chloro-11β-[4-[3-(1-piperidinyl)propyl]phenyl]-estra-1,3,5(10) -trien-3,17β-diol] | – | Mixed | 14 |
| C[C@]12CC[C@@H]3c4ccc(O)cc4CC[C@H]3[C@@H]1CC[C@@H]2O [Oestradiol, reference compound] | – | Agonist | – |

Further lines, with some results ahead:

| Relative affinity of the link (ARL), EH oestradiol = 100, 24 H [2, 3] | SMILES | ACTIVITY (proliferative activity on MCF-7 cells) [1] | Relative affinity of the link (ARL), EH oestradiol = 100, 24 H [2] |
| --- | --- | --- | --- |
| 28 | C[C@]12C[C@H](c3ccc(CCCN4CCCCC4)cc3)[C@@H]3c4ccc(O)cc4CC[C@H]3[C@@H]1CC[C@@H]2O [Example 9] | Inhibitor | – |
| 28 | CCN(CC)CCCc1ccc([C@H]2C[C@]3(C)[C@@H](O)CC[C@H]3[C@@H]3CCc4c(ccc(O)c4Cl)[C@H]32)cc1 [Example 12, 4-chloro-11β-[4-[3-(1-diethylamino)propyl]phenyl]-estra-1,3,5(10)-trien-3,17β-diol] | Inhibitor | – |
| 42 | CC1(O)CCC2C3CCc4cc(O)ccc4C3C(c3ccc(CCCN4CCCCC4)cc3)CC21C (stereo not drawn) [Example 13, 17α-methyl-11β-[4-[3-(1-piperidininyl)propyl]phenyl]-estra-1,3,5(10)-trien-3,17β-diol] | Inhibitor | – |
